Assay [1] relates to TGF-β-stimulated SMAD3 phosphorylation in BEAS-2B cells. The experiment in a line: Cellular ALK5 potency assay, inhibition of TGF-β stimulated pSMAD3 formation in BEAS-2B cells. Type of assay: cell-based. To be noted: Homo sapiens, pSMAD3, TGF-β 10 ng/mL, read-out: BEAS2B pIC50 (converted). The procedure: The potency of compounds of the present disclosure for inhibition of TGF-β-stimulated SMAD3 phosphorylation was measured in BEAS-2B cells, a human lung epithelial cell line. TGF-β signals through activin receptor-like kinase 5 (ALK5) immediately prior to SMAD3 phosphorylation.
BEAS-2B cells were grown using 50% DMEM (Life Technologies) and 50% F-12 (Life Technologies) media, supplemented with 10% Fetal Bovine Serum (ATCC), 25 mM HEPES (Life Technologies), and 1×Pen-Strep (Life Technologies). Cells were cultured in a humidified incubator set at 37° C., 5% CO2, and trypsonized using 0.25% Trypsin with 0.5% polyvinylpyrrolidone (PVP).
For the assay, BEAS-2B cells were seeded at 7,500 cells/well (25 μL/well) in a 384-well plate and cultured overnight. Before dosing, growth media was aspirated and the wells were rinsed with HBSS Buffer (HBSS with Calcium and Magnesium, Life Technologies) supplemented with 25 mM HEPES (Life Technologies) and 1% Bovine Serum Albumin (Roche). Compounds were serially diluted in DMSO, then further diluted with supplemented HBSS Buffer (50 μL/well) to create a compound plate 3× of the final assay concentration, at 0.3% DMSO. The diluted compounds were then added to the cells (8 μL/well) and incubated at 37° C., 5% CO2 for 1 hour. After the compound incubation, TGF-β (R&D Systems) reconstituted in supplemented HBSS Buffer was added to the cells ([…], final concentration 10 ng/mL) and incubated for a further 30 minutes, after which the cells were immediately lysed with AlphaLISA lysis buffer (PerkinElmer). AlphaLISA Acceptor and Detector beads (PerkinElmer) were added 2 hours apart, then incubated overnight to be read the next day. The potency of the compound was determined through analysis of dose-dependent quantified changes in pSMAD3 signal from baseline (non-compound treated TGF-β stimulated cells). Data are expressed as pIC50 (negative decadic logarithm IC50) values.

Assay [2] addresses T1, recombinant human ALK5 (TGF-βR1) protein (Homo sapiens, UniProt P36897).
T1 construct: purchased Life Technologies PR9075A
T1 sequence (P36897 34-503): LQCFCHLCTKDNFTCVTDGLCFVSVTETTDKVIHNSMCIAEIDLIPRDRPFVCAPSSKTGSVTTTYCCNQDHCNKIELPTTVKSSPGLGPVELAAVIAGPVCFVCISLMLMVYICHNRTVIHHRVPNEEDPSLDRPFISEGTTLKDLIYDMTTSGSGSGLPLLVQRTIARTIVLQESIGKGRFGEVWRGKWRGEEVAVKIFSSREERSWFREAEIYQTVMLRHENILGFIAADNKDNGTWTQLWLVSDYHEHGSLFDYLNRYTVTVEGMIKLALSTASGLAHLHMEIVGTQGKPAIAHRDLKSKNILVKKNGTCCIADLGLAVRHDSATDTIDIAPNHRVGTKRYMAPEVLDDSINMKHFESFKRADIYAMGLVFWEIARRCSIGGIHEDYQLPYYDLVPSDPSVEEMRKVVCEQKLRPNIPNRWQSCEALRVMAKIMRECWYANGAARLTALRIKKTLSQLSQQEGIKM
The experiment in a line: Biochemical ALK5 (TGF-βR1) assay to measure pKi (LANCE Ultra ULight kinase assay). As to conditions: apparent pKi, converted from pIC50 by Cheng-Prusoff. The procedure:
The assays were performed in a 384-well plate (24 columns×16 wells/rows). An Echo®550 Liquid Handler (Labcyte) was used to prepare various intermediate concentrations of compounds of the present disclosure in 100% DMSO. From the intermediate concentrations, a range of concentrations (from […] to 25 μM corresponding to volumes up to 105 nL) were prepared and ejected into a final assay plate to be used to create individual dose response curves for each of the subject compounds. To a separate column within the assay plate, 105 nL of DMSO in each well was used to establish a maximum assay signal. Additionally, 105 nL of 100 μM SD-208, a selective TGF-βR1 inhibitor (Catalog #S7624, Selleck Chemicals), was used in another column of wells to establish a minimal assay signal.
With a multidrop dispenser, 8 μL of enzyme mixture (1.25× final) was added to each well. […] The plate was then sealed with an adhesive seal and allowed to equilibrate for 60 minutes at room temperature.
Next, 2 μL of 125 μM ATP (5×final, 125 μM ATP prepared in assay buffer with 2 mM DTT) was added to the incubated mixtures, covered with a MicroClime® Environmental Lid (Product No. LLS-0310, Labcyte) and immediately transferred to 37° C. The reactions were allowed to proceed at 37° C. for 60 minutes before terminating with the addition of 10 μL of detection antibody (LANCE® (lanthanide chelate excite) Ultra Europium-anti-phospo-DNA Topoisomerase 2-alpha (Thr1342)) in detection mixture (12 mM EDTA, 4 nM detection antibody prepared in detection buffer (50 mM Tris-HCl, 150 mM NaCl, 0.5% BSA (Fraction V), pH 7.0)) at room temperature. The plate was then read on a Perkin Elmer EnVision Plate Reader using europium specific reader settings with excitation and emission wavelengths set to 320 or 340 nm and 665 nm, respectively.
For dose-response analyses, percent inhibition versus compound concentrations were plotted, and pIC50 values were determined from a 4-parameter robust fit model with GraphPad Prism V5 Software (GraphPad Software, Inc., La Jolla, CA). This model obtains pIC50 values by fitting the sigmoidal dose-response (variable slope) equation to the data. Results were expressed as pIC50 (negative logarithm of IC50) and subsequently converted to pKi (negative logarithm of dissociate constant, Ki) using the Cheng-Prusoff equation. The higher the value of pKi (lower value of Ki), the greater the inhibition of ALK5 activity.

On to `Cc1cccc(-c2nccc(Nc3ccnc(Nc4ccc(N5CCNC(C)C5)cc4)n3)n2)n1` (racemic) [Compound 7, N4-[2-(6-methyl-2-pyridyl)pyrimidin-4-yl]-N2-[4-[rac-(3R)-3-methylpiperazin-1-yl]phenyl]pyrimidine-2,4-diamine], for which the IC50 in assay [1] was 25.1 to 158 nM. With `Cc1cccc(-c2nccc(Nc3ccnc(Nc4ccc(N5CCNCC5CC(=O)O[C@@H]5CCN(C)C5)cc4)n3)n2)n1` (mixture of isomers) [Compound 103, (R)-1-methylpyrrolidin-3-yl 2-(1-(4-((4-((2-(6-methylpyridin-2-yl)pyrimidin-4-yl)amino)pyrimidin-2-yl)amino)phenyl)piperazin-2-yl)acetate], in assay [2], the Ki is 0.398 to 3.16 nM. The IC50 in assay [1] is 200 to 1260 nM. On to `Cc1cccc(-c2nccc(Nc3ccnc(Nc4ccc(CN5CCCC(C(=O)O[C@@H]6CCNC6)C5)cc4)n3)n2)n1` (mixture of isomers) [Compound 105, [rac-(3R)-pyrrolidin-3-yl] 1-[[4-[[4-[[2-(6-methyl-2-pyridyl)pyrimidin-4-yl]amino]pyrimidin-2-yl]amino]phenyl]methyl] piperidine-3-carboxylate], for which the Ki in assay [2] is 0.0398 to 0.316 nM. In assay [1], the IC50 was 25.1 to 158 nM. Taken in the same sequence, the figures for `CCC(C)OC(=O)C1CN(c2ccc(Nc3nccc(Nc4ccnc(-c5cccc(C)n5)n4)n3)cc2)CCN1` (racemic) [Compound 192, [rac-(1R)-1-methylpropyl] 4-[4-[[4-[[2-(6-methyl-2-pyridyl)pyrimidin-4-yl]amino]pyrimidin-2-yl]amino]phenyl]piperazine-2-carboxylate] were 0.0398 to 0.316 nM and 25.1 to 158 nM. Taken in the same sequence, the figures for `Cc1cccc(-c2nccc(Nc3ccnc(Nc4ccc(CN5CCCC(C(=O)O[C@H]6CCNC6)C5)cc4)n3)n2)n1` (mixture of isomers) [Compound 212, [rac-(3S)-pyrrolidin-3-yl] 1-[[4-[[4-[[2-(6-methyl-2-pyridyl)pyrimidin-4-yl]amino]pyrimidin-2-yl]amino]phenyl]methyl] piperidine-3-carboxylate] were 0.0398 to 0.316 nM and 25.1 to 158 nM. The like results for `Cc1cccc(-c2nccc(Nc3ccnc(Nc4ccc(N5CCNCC5C)cc4)n3)n2)n1` (racemic) [Compound 216, N4-[2-(6-methyl-2-pyridyl)pyrimidin-4-yl]-N2-[4-[rac-(2S)-2-methylpiperazin-1-yl]phenyl]pyrimidine-2,4-diamine] were, in that order, 0.0398 to 0.316 nM and 25.1 to 158 nM. As to `CCC(C)OC(=O)C1CNCCN1c1ccc(Nc2nccc(Nc3ccnc(-c4cccc(C)n4)n3)n2)cc1` (racemic) [Compound 230, [rac-(1R)-1-methylpropyl] 1-[4-[[4-[[2-(6-methyl-2-pyridyl)pyrimidin-4-yl]amino]pyrimidin-2-yl]amino]phenyl]piperazine-2-carboxylate], the Ki in assay [2] was 0.398 to 3.16 nM. Moreover, the IC50 in assay [1] is 25.1 to 158 nM. Regarding `Cc1cccc(-c2nccc(Nc3ccnc(Nc4ccc(N(C)C5CCNC5)cc4)n3)n2)n1` (racemic) [Compound 274, N4-[2-(6-methyl-2-pyridyl)pyrimidin-4-yl]-N2-[4-[methyl-[rac-(3R)-pyrrolidin-3-yl]amino]phenyl]pyrimidine-2,4-diamine], the Ki in assay [2] was 0.0398 to 0.316 nM. The IC50 in assay [1] was 25.1 to 158 nM. On to `Cc1cccc(-c2nccc(Nc3ccnc(Nc4ccc(N5CCNC(C)C5)cc4)n3)n2)n1` (racemic) [Compound 528, N4-[2-(6-methyl-2-pyridyl)pyrimidin-4-yl]-N2-[4-[rac-(3S)-3-methylpiperazin-1-yl]phenyl]pyrimidine-2,4-diamine], for which the Ki in assay [2] was 0.0398 to 0.316 nM. `Cc1cccc(-c2ncc(C(=O)O)c(Nc3ccnc(Nc4ccc(N)cc4)n3)n2)n1` [Compound 26, 4-[[2-(4-aminoanilino)pyrimidin-4-yl]amino]-2-(6-methyl-2-pyridyl)pyrimidine-5-carboxylic acid]: the IC50 in assay [1] was 1580 to 10000 nM. `Cc1cccc(-c2nccc(Nc3ccnc(Nc4ccc(CN5CC(CO)C5)cc4)n3)n2)n1` [Compound 266, [1-[[4-[[4-[[2-(6-methyl-2-pyridyl)pyrimidin-4-yl]amino]pyrimidin-2-yl]amino]phenyl]methyl]azetidin-3-yl]methanol]: the Ki in assay [2] was 0.0398 to 0.316 nM.

`CNC(=O)Cc1cc(Nc2ccnc(Nc3ccc(N4CCNCC4)cc3)n2)nc(-c2cccc(C)n2)n1` [Compound 309, N-methyl-2-[2-(6-methyl-2-pyridyl)-6-[[2-(4-piperazin-1-ylanilino)pyrimidin-4-yl]amino]pyrimidin-4-yl]acetamide]: in assay [1], the IC50 is 200 to 1260 nM.

With `Cc1cccc(-c2nccc(Nc3ccnc(Nc4ccc(CN5CC[C@@H](O)C5)cc4)n3)n2)n1` [Compound 319, (3R)-1-[[4-[[4-[[2-(6-methyl-2-pyridyl)pyrimidin-4-yl]amino]pyrimidin-2-yl]amino]phenyl]methyl] pyrrolidin-3-ol], the Ki in assay [2] is no more than 0.0316 nM. On to `COC(=O)c1ccc(Nc2nccc(Nc3nc(-c4cccc(C)n4)ncc3C(=O)OC)n2)cc1` [Compound 468, methyl 4-[[2-(4-methoxycarbonylanilino)pyrimidin-4-yl]amino]-2-(6-methyl-2-pyridyl) pyrimidine-5-carboxylate], for which the IC50 in assay [1] is 200 to 1260 nM.

For the molecule `Cc1cccc(-c2nccc(Nc3ccnc(Nc4ncc(N5CCNCC5)s4)n3)n2)n1` [Compound 640, N4-[2-(6-methyl-2-pyridyl)pyrimidin-4-yl]-N2-(5-piperazin-1-ylthiazol-2-yl)pyrimidine-2,4-diamine], the Ki in assay [2] is 3.98 to 31.6 nM. Still for that read-out and setting: to `CNC(=O)Cc1cc(Nc2ccnc(Nc3ccc(N4CCNCC4)cc3)n2)nc(-c2cccc(C)n2)n1` [Compound 1008, N-methyl-2-[2-(6-methyl-2-pyridyl)-6-[[2-(4-piperazin-1-ylanilino)pyrimidin-4-yl]amino]pyrimidin-4-yl] acetamide] belongs 3.98 to 31.6 nM; to `COC(=O)c1ccc(Nc2nccc(Nc3nc(-c4cccc(C)n4)ncc3C(=O)OC)n2)cc1` [Compound 1043, methyl 4-[[2-(4-methoxycarbonylanilino)pyrimidin-4-yl]amino]-2-(6-methyl-2-pyridyl)pyrimidine-5-carboxylate], 3.98 to 31.6 nM. As to `Cc1cccc(-c2ncc(C(=O)O)c(Nc3ccnc(Nc4ccc(N)cc4)n3)n2)n1` [Compound 1044, 4-[[2-(4-aminoanilino)pyrimidin-4-yl]amino]-2-(6-methyl-2-pyridyl)pyrimidine-5-carboxylic acid], the Ki in assay [2] was 0.398 to 3.16 nM.

The values are drawn from patent publication US20230399312A1, “SUBSTITUTED PYRIMIDINES AND METHODS OF USE” (THERAVANCE BIOPHARMA R&D IP, LLC, priority 2020, published 2023).
